The text below walks through data of patent US20040049072A1, “RXR modulators with improved pharmacologic profile” (priority 1999, published 2004).

Where two headings read alike, the source gives them in different places.

One series addresses T1, RXRα:PPARγ heterodimer (Homo sapiens, UniProt P19793).
T1 construct: expressed in transfected cells; host or cells: CV-1 cells
T1 sequence (P19793 1-462): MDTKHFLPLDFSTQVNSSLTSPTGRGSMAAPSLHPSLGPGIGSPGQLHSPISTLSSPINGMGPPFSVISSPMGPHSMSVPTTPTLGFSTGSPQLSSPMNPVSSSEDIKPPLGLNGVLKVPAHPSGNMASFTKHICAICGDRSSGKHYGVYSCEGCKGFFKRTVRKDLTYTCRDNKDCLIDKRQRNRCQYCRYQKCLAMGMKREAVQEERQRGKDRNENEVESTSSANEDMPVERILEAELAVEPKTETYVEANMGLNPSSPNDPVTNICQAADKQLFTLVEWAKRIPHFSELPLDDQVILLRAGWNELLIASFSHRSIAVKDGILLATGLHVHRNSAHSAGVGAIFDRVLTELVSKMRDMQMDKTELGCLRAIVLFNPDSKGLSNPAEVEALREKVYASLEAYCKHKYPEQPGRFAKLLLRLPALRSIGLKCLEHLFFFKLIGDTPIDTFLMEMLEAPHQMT
T1 sequence (P37231 1-505 partner): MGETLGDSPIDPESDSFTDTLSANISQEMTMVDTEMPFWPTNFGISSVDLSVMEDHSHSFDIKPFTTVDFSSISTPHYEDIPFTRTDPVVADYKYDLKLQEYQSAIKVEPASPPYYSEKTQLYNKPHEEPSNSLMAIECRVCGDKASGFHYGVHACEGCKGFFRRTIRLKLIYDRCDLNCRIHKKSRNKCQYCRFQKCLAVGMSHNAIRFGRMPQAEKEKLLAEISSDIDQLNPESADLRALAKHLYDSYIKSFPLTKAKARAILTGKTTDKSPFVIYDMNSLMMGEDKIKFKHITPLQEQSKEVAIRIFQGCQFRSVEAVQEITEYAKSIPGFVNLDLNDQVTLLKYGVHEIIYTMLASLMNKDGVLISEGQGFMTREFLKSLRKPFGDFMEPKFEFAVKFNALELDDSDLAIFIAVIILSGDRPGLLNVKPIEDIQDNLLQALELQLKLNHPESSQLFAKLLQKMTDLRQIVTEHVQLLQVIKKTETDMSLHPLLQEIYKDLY
As to the kind of experiment: RXR:PPARγ heterodimer co-transfection assay in CV-1 cells. The series is classed as cell-based. The following applies: for PPARγ CV-1 (%) Synergy: maximal response in presence of 100 nM BRL49653 relative to BRL49653 alone; for RXRα:PPARγ Heterodimer Cotransfection Assay Synerg Efficacy (%): maximal response in presence of 100 nM BRL relative to response of BRL alone; for RXRα:PPARγ Heterodimer Cotransfection Assay Agonist Efficacy (%): maximal response relative to response of BRL 49653; for activity on the RXRα:PPARγ heterodimer in combination with the PPARγ ligand: synergy mode, with BRL 49653. The procedure: For determination of agonist activity in the context of the RXR:RAR heterodimer or the RXR:PPARγ heterodimer, media containing compounds of the present invention in concentrations ranging from 10^−10 to 10^−5 M were added to the cells.
Compounds of the present invention were also tested for the ability to synergize with a PPARγ agonist in the context of an RXR heterodimer. […] Efficacy of the compounds of the present invention in the agonist and synergy assays was calculated as the maximum response obtained over the range of the dose response curve relative to the maximum response obtained by the reference agonist. Antagonist efficacy was determined as a function (%) of maximal inhibition.
To examine the effects of the compounds of the present invention on the transcriptional properties of the RXR:PPARγ, a heterodimer cotransfection assay as described above was employed.

For a further series, the target named is T2, RXRα (Homo sapiens, UniProt P19793).
T2 sequence (P19793 1-462): T1 sequence (P19793 1-462)
In words: RXRα binding (competition with tritiated LGD1069). The procedure: Non-specific binding was defined as that binding remaining in the presence of 500 nM of the appropriate unlabelled compound. At the end of the incubation period, bound ligand was separated from free. The amount of bound tritiated retinoid was determined by liquid scintillation counting of an aliquot (700 μL) of the supernatant fluid or the hydroxylapatite pellet.
After correcting for non-specific binding, IC50 values were determined. […] The IC50 value was determined graphically from a log-logit plot of the data. The Ki values were determined by application of the Cheng-Prussof equation to the IC50 values, the labeled ligand concentration and the Kd of the labeled ligand.

Series [1] relates to mice transgenic for the human apolipoprotein A-I gene. In words: transgenic mice carrying the human apo A-I gene (HDL cholesterol, triglycerides). Format: in vivo, mouse. The source says:
Mice transgenic for the human apolipoprotein A-I gene (obtained from Jackson Laboratory) were used to evaluate PPARalpha mediated effects on HDL cholesterol. The mice were handled as described above for db/db mice, except that they were fed Purina 5001.

[2] abbreviates: Table 3, mean of n > 3, read-out: RXRα Binding Ki.
The mark [3] stands for this setting: from IC50 by Cheng-Prussof equation, tritiated LGD1069, read-out: Bind RXRα Ki.

Usually Ki stands for the dissociation constant of the complex between target and ligand, obtained from inhibition or displacement. Take `CCCCCCCOc1c(/C(C)=C/C=C/C(C)=C/C(=O)O)cc(C(C)(C)C)cc1C(C)(C)C` [Compound L5]: on RXRα:PPARγ heterodimer, the “activity on the RXRα:PPARγ heterodimer, tested alone” value (shortened to “activity … tested alone”) is on record as “not active as an agonist”; the “PPARγ CV-1 (%) Synergy” value was found to be 6%; the “RXRα:PPARγ Heterodimer Cotransfection Assay Synerg Efficacy (%)” value is given as 6%; the “RXRα:PPARγ Heterodimer Cotransfection Assay Agonist Efficacy (%)” value worked out at 4%. At RXRα:PPARγ heterodimer, the “activity on the RXRα:PPARγ heterodimer in combination with the PPARγ ligand” value (shortened to “activity … with the PPARγ ligand”) is “not active as an agonist”. Further, on RXRα (setting [2]), the Ki worked out at 0.6 nM. Further, the inhibition constant Ki on RXRα (setting [3]) was 0.6 nM.
For `CCCCOc1c(/C(C)=C/C=C/C(C)=C/C(=O)O)cc(C(C)(C)C)cc1C(C)(C)C` [Compound L4], at RXRα:PPARγ heterodimer, the “activity … tested alone” value is “only weakly active alone”; the “PPARγ CV-1 (%) Synergy” value is reported as 20%; the “RXRα:PPARγ Heterodimer Cotransfection Assay Synerg Efficacy (%)” value stood at 20%; the “RXRα:PPARγ Heterodimer Cotransfection Assay Agonist Efficacy (%)” value is reported as 3%. In addition, the “activity … with the PPARγ ligand” value at RXRα:PPARγ heterodimer was “active in the presence of the PPARγ ligand”. The Ki on RXRα (setting [2]) was 0.9 nM. The Ki at RXRα (setting [3]) was found to be 1 nM.
For `CCOc1c(/C(C)=C/C=C/C(C)=C/C(=O)O)cc(C(C)(C)C)cc1C(C)(C)C` [Compound L2], on RXRα:PPARγ heterodimer, the “activity … tested alone” value is given as “partial agonist alone”; the “PPARγ CV-1 (%) Synergy” value was determined as 69%; the “RXRα:PPARγ Heterodimer Cotransfection Assay Synerg Efficacy (%)” value was 69%; the “RXRα:PPARγ Heterodimer Cotransfection Assay Agonist Efficacy (%)” value came out at 14%. The “activity … with the PPARγ ligand” value on RXRα:PPARγ heterodimer was “stronger activity in combination with the PPARγ ligand”. Moreover, the inhibition constant Ki at RXRα (setting [2]) was found to be 13 nM. Further, on RXRα (setting [3]), the Ki came to 13 nM.
As to `COc1c(/C(C)=C/C=C/C(C)=C/C(=O)O)cc(C(C)(C)C)cc1C(C)(C)C` [Compound L1], the triglycerides result in series [1] was “substantially raise triglycerides”. At RXRα:PPARγ heterodimer, the “activity … tested alone” value is “both agonist and synergistic activity similar to that seen with LGD1069 and LG100268”; the “PPARγ CV-1 (%) Synergy” value was 166%; the “RXRα:PPARγ Heterodimer Cotransfection Assay Synerg Efficacy (%)” value turned out to be 166%; the “RXRα:PPARγ Heterodimer Cotransfection Assay Agonist Efficacy (%)” value is 59%. Besides, at RXRα:PPARγ heterodimer, the “activity … with the PPARγ ligand” value was “both agonist and synergistic activity similar to that seen with LGD1069 and LG100268”. Further, the Ki at RXRα (setting [2]) was 1.1 nM. Moreover, on RXRα (setting [3]), the Ki came out at 1.1 nM.
Turning to `CCCOc1c(/C(C)=C/C=C/C(C)=C/C(=O)O)cc(C(C)(C)C)cc1C(C)(C)C` [Compound L3], at RXRα:PPARγ heterodimer, the “activity … tested alone” value is “only weakly active alone”; the “PPARγ CV-1 (%) Synergy” value is 25%; the “RXRα:PPARγ Heterodimer Cotransfection Assay Synerg Efficacy (%)” value is recorded as 25%; the “RXRα:PPARγ Heterodimer Cotransfection Assay Agonist Efficacy (%)” value is reported as 6%. On RXRα:PPARγ heterodimer, the “activity … with the PPARγ ligand” value is on record as “active in the presence of the PPARγ ligand”. For the same compound, the Ki at RXRα (setting [2]) is 1.1 nM. Further, on RXRα (setting [3]), the Ki was determined as 1 nM.
